Source: patent publication US7384935B2 (Thallion Pharmaceuticals, Inc., priority 2005, dated 2008)
Where two headings read alike, the source gives them in different places.

Experiments:
[1] = system: HT-29 (colorectal carcinoma); test: In vitro cytotoxic activity (GI50), propidium iodide dye indicator; conditions: read-out: In vitro Cytotoxic Activities GI50, HT-29
[2] = system: HT-29, SF268, MDA-MB-231 and PC-3; test: In vitro cytotoxic activity, four cell lines together (average / overall statement); conditions: for GI50: read-out: In vitro Cytotoxic Activities GI50, Average; for exhibited in vitro anticancer activity at 30 μM: four cell lines
[3] = system: PC-3 (prostate adenocarcinoma); test: In vitro cytotoxic activity (GI50), propidium iodide dye indicator; assay type: cell-based; conditions: PC-3, 96 hrs incubation; read-out: In vitro Cytotoxic Activities GI50, PC-3
From the text: (§1) Procedure used for the tests is described below.

SF268 (CNS) = test: as above; assay type: cell-based; conditions: SF-268, 96 hrs incubation, read-out: In vitro Cytotoxic Activities GI50, SF-268
From the text: as §1

[4] = system: MDA-MB-231 (mammary gland adenocarcinoma); test: as above; assay type: cell-based; conditions: MDA-MB-231, 96 hrs incubation, read-out: In vitro Cytotoxic Activities GI50, MDA-MB-231
From the text: as §1

in vivo = conditions: Sprague-Dawley, rat, plasma, iv, 30 mg/kg
Experimental: Each blood sample (approximately 0.5 mL) was collected into microtainer tubes containing anticoagulant K2EDTA. The samples were centrifuged at a temperature ranging from about 2 to about 8° C. for 10 minutes at 1500 g (RCF). A volume of 25 μL of 4% w/v L-aqueous acid was added to a volume of 225 μL of rat plasma in a clean tube, and the samples were mixed by inversion.
LOQ and LOD values were determined according to the concentration range used in the experiment, using a MDS Sciex API 2000™ Q-Trap™. Mean concentration values and standard deviation (SD) were calculated at each timepoints of the pharmacokinetic study (n=3 animals/timepoint).
Blood was collected, centrifuged and analyzed as above.

[5] = Conversion to Compound 1 by rat liver homogenate; assay type: in vitro ADME, Sprague Dawley rats; conditions: 37° C.
Experimental: The aim of this test was to determine if the phosphate prodrugs were cleaved by phosphatases present in the liver.
Rat liver (3 g from Sprague Dawley rats) was weighed into a centrifuge tube and 12 mL of Buffer A was added, representing a 1:4 tissue/buffer ratio, which were homogenized for at least 30 seconds at ambient temperature.
Stock solutions of test article, control and internal standards were prepared as shown in Table 8 by diluting the compound in the appropriate solvent.
Liver homogenate (180 μL) was transferred into Eppendorf™ tubes (polypropylene, size 1.8 mL). Tubes for Blank, 0 min, 30 min, 1 h, 2 h, 3 h, 4 h and 5 h for each concentration of compound to be tested. Blank tubes were prepared by adding 200 μL of homogenate per tube.
Immediately after vortexing, the 0 min samples (for calibration) were extracted with extraction Methods A and B (see below). The remaining tubes were incubated at 37° C. for the prescribed length of time.
The mixture was allowed to stand for 10 minutes at room temperature. It was then centrifuged at 13000 RPM for 5 minutes at 4° C. The supernatant was tested by LC-MS/MS (Method B).
A volume of 800 μL of acetonitrile containing IS 200 ng/mL (Stock F) was added to the homogenate and the mixture vortexed for 30 sec. The mixture was allowed to stand at room temperature for 10 minutes, and was centrifuged at 13000 RPM for 5 minutes at 4° C. The supernatant was tested by LC-MS/MS (Method A).
Both LC methods were accomplished using the same HPLC system (Agilent Technologies 1100 with Binary pump and autosampler, and an Agilent 1100 Autosampler needle wash to avoid contamination of the needle. Both MS/MS method were done using a MDS Sciex™ MS system under positive electrospray ionization.
Multiple Reaction Monitoring (MRM) was used as scan type in Method A MS/MS.
LC Method B (long method) was done using 20 μL of test solution on a Waters Symmetry™ C-18, 3.5μ (3.0×100 mm id) and a divert pump flow rate of 1.0 ml/min using the conditions described in Table 10.
Enhanced Product Ion (EPI) was used as scan type in Method B MS/MS.

[6] = average of HT-29, SF-268, PC-3, MDA-MB-231

SMILES | GI50 ([1]; HT-29, 96 hrs incubation) [µM] | GI50 [2, 6] [µM] | GI50 [3] [µM] | GI50 (SF268 (CNS)) [µM] | GI50 [4] [µM] | GI50 ([1]; Homo sapiens, HT-29, 96 h) [µM] | exhibited in vitro anticancer activity at 30 μM [2] | GI50 [2] [µM] | GI50 (SF268 (CNS); Homo sapiens) [µM] | GI50 ([4]; Homo sapiens) [µM] | solubility (physchem) [mg/mL] | further results
CC(=O)Oc1cc(OC(C)=O)c2c(c1)N(C/C=C(\C)CC/C=C(\C)CCC=C(C)C)C(=O)c1cccc(OC(C)=O)c1N2 [A, reference compound] | 9.33 | 3.82 | 1.2 | 1.95 | 2.79 |  |  |  |  |  |  | 
CC(=O)Oc1cccc2c1Nc1c(OC(C)=O)cc(O)cc1N(C/C=C(\C)CC/C=C(\C)CCC=C(C)C)C2=O [B, reference compound] | 12.6 | 4.6 | 1.44 | 1.88 | 2.48 |  |  |  |  |  |  | 
CC(=O)Oc1cc(O)c2c(c1)N(C/C=C(\C)CC/C=C(\C)CCC=C(C)C)C(=O)c1cccc(OC(C)=O)c1N2 [C, reference compound] | 16 | 8.72 | 5.35 | 5.79 | 7.72 |  |  |  |  |  |  | 
CC(C)=CCC/C(C)=C/CC/C(C)=C/CN1C(=O)c2cccc(O)c2Nc2c(O)cc(O)cc21 [Compound 1, 10-farnesyl4,6,8-trihydroxy-5,10-dihydrodibenzo[b,e][1,4]diazepin-11-one] |  |  |  |  |  |  |  |  |  |  |  | AUC (in vivo): 70200 ng·h/mL
CC(C)=CCC/C(C)=C/CC/C(C)=C/CN1C(=O)c2cccc(OP(=O)(OCc3ccccc3)OCc3ccccc3)c2Nc2c(OP(=O)(OCc3ccccc3)OCc3ccccc3)cc(OP(=O)(OCc3ccccc3)OCc3ccccc3)cc21 [Compound 2, 10-farnesyl-4,6,8-tri(bisbenzyloxyphosphoryloxy)-5,10-dihydro-dibenzo[b,e][1,4]diazepin-11-one] |  |  | > 30 |  |  | > 30 | None | > 30 | > 30 | > 30 |  | 
CC(C)=CCCC(C)=CCCC(C)=CCN1C(=O)c2cccc(OP(=O)(O)OCc3ccccc3)c2Nc2c(OP(=O)(O)OCc3ccccc3)cc(OP(=O)(O)OCc3ccccc3)cc21.N.N.N [Compound 9 (NH4^+)3, 10-farnesyl-4,6,8-tri(benzyloxyhydroxyphosphoryloxy)-5,10-dihydro-dibenzo[b,e][1,4]diazepin-11-one triammonium salt] |  |  | > 30 |  |  | > 30 | None | > 30 | > 30 | > 30 | > 40 | Concentration of Compound 9 (remaining prodrug) vs Time of Incubation ([5]; initial conc. 5 μg/mL in homogenate, 0 min): 1840 ng/mL; Concentration of Compound 9 (remaining prodrug) vs Time of Incubation ([5]; initial conc. 5 μg/mL in homogenate, 0.5 h): 2040 ng/mL; Concentration of Compound 9 (remaining prodrug) vs Time of Incubation ([5]; initial conc. 5 μg/mL in homogenate, 1 h): 2570 ng/mL; Concentration of Compound 9 (remaining prodrug) vs Time of Incubation ([5]; initial conc. 5 μg/mL in homogenate, 2 h): 856 ng/mL; Concentration of Compound 9 (remaining prodrug) vs Time of Incubation ([5]; initial conc. 5 μg/mL in homogenate, 3 h): 544 ng/mL; Concentration of Compound 9 (remaining prodrug) vs Time of Incubation ([5]; initial conc. 5 μg/mL in homogenate, 4 h): <LOD; Concentration of Compound 9 (remaining prodrug) vs Time of Incubation ([5]; initial conc. 5 μg/mL in homogenate, 5 h): <LOD; Concentration of Compound 9 (remaining prodrug) vs Time of Incubation ([5]; initial conc. 20 μg/mL in homogenate, 0 min): 13300 ng/mL; Concentration of Compound 9 (remaining prodrug) vs Time of Incubation ([5]; initial conc. 20 μg/mL in homogenate, 0.5 h): 14600 ng/mL; Concentration of Compound 9 (remaining prodrug) vs Time of Incubation ([5]; initial conc. 20 μg/mL in homogenate, 1 h): 9030 ng/mL; Concentration of Compound 9 (remaining prodrug) vs Time of Incubation ([5]; initial conc. 20 μg/mL in homogenate, 2 h): 2970 ng/mL; Concentration of Compound 9 (remaining prodrug) vs Time of Incubation ([5]; initial conc. 20 μg/mL in homogenate, 3 h): 1530 ng/mL; Concentration of Compound 9 (remaining prodrug) vs Time of Incubation ([5]; initial conc. 20 μg/mL in homogenate, 4 h): 1080 ng/mL; Concentration of Compound 9 (remaining prodrug) vs Time of Incubation ([5]; initial conc. 20 μg/mL in homogenate, 5 h): 948 ng/mL
CC(C)=CCC/C(C)=C/CC/C(C)=C/CN1C(=O)c2cccc(OP(=O)(O)O)c2Nc2c(OP(=O)(O)O)cc(OP(=O)(O)O)cc21 [Compound 16] |  |  | > 30 |  |  | > 30 | None | > 30 | > 30 | > 30 | > 40 | 
CC(C)=CCC/C(C)=C/CC/C(C)=C/CN1C(=O)c2cccc(O)c2Nc2c(OP(=O)(O)O)cc(O)cc21.N.N [Compound 21 (NH4^+)2, 4,8-dihydroxy-10-farnesyl-6-phosphonooxy-5,10-dihydro-dibenzo[b,e][1,4]diazepin-11-one diammonium salt] |  |  | > 30 |  |  | > 30 | None | > 30 | > 30 | > 30 | 5 | 
CC(=O)Oc1cc(OC(C)=O)c2c(c1)N(C/C=C(\C)CC/C=C(\C)CCC=C(C)C)C(=O)c1cccc(O)c1N2 [D, reference compound] | 13 | 4.48 | 1.35 | 2.02 | 1.55 |  |  |  |  |  |  | 
